Where “and” joins values, the source holds several entries; their conditions need not be identical. Equal entries are not always repeated.
Tests used:
[1] = target: T1, beta amyloid peptide Aβ(1-40) (Homo sapiens, UniProt P05067); test: BAPA (Beta-Amyloid Peptide Aggregation), pH 6.0; format: biochemical; settings: Aβ(1-40) 33 μM, pH 6.0, 2 to 4 hours at room temperature, filtration
T1 construct: 0.5 mg/mL AP (140) peptide in 20% HFIP+0.1 μL/assay radioiodinated ^125I Aβ(1-40)
Procedure: BAPA (Beta-Amyloid Peptide Aggregation)
This assay is used to provide a measure of inhibition by a compound against the aggregation behavior of the beta amyloid peptide.
The purpose of this assay is to provide a higher volume method of assaying the amount of beta amyloid aggregation using an endpoint assay based on filtration. In this assay, hexafluoroisopropanol (HFIP) is used to break down the initial amyloid peptide to a monomer state and use a concentration of 33 μM which is high enough so that aggregation will occur at pH 6.0 in several hours.
β-Amyloid Peptide Aggregation, pH 6.0 (BAPA)
In a 96-well plate (Costar 3794), we add […] 50 mM Phosphate Buffer, pH 6.0, 10 μL 0.5 mg/mL AP (140) peptide in 20% HFIP+0.1 μL/assay radioiodinated ^125I Aβ(1-40) [^125I Aβ(1-40)], and 1 μL of the compound to be tested starting at 50 mM with a concentration of DMSO <1%. Then, we incubate for 2 to 4 hours at room temperature. We stop the reaction with […] of 50 mM phosphate buffer, pH 6.0, and filter it through a 0.2 μm 96-well filter plate (Millipore MAGU N22). We wash the filter plate with 100 μL of the same phosphate buffer. Aggregation was detected on a Microbeta counter after impregnating the filters with Meltilex (1450-441) and is corrected for background.

Aβ(1-40) [2] = target: T2, Aβ(1-40) (Homo sapiens, UniProt P05067); test: BASSR (Beta-Amyloid Self-Seeding Radioassay), inhibitors of self-seeded amyloid fibril growth; format: biochemical; settings: 30 μM soluble Aβ(1-40) + 125I-labeled Aβ(1-40), pH 7.5, 37° C., 3 to 5 hours, filtration
T2 construct: Soluble Aβ(1-40) peptide (Bachem, Torrance, Calif.); purchased Bachem, Torrance, Calif
Procedure: BASSR (Beta-Amyloid Self-Seeding Radioassay)
(§1) An assay for inhibitors of self-seeded amyloid fibril growth
Assay Buffer—50 mM sodium phosphate, pH 7.5, 100 mM NaCl, 0.02% NaN3, 1 M urea (filter and store at 4° C.)
Soluble Aβ(1-40) peptide (Bachem, Torrance, Calif.)—2.2 mg/mL in deionized H2O (stored in aliquots at −20° C., keep on ice when thawed) will self-seed after 1 week storage. Typically, the solution should be stored until no lag phase is seen in the assay.
^125I-labeled Aβ(1-40)—150K-350K cpm/μL in 100% acetonitrile—0.1% trifluoroacetic acid (TFA)—1% β-mercaptoethanol (aliquots stored at −20° C.). ^125I-labeled Aβ(1-40) can be made in accordance with the procedure set forth by H. Levine, III in Neurobiol. Aging, 16:755 (1995), which is hereby incorporated by reference, or this reagent may be purchased from Amersham, Arlington Heights, Ill.
Final assay conditions: 30 μM soluble Aβ(1-40) in deionized water in assay buffer+20-50K cpm ^125I-labeled Aβ(1-40) per assay. Compound to be tested is dissolved in dimethylsulfoxide (DMSO), typically 5-50 mM stock, such that the final concentration of DMSO is <1% v/v in the assay.
Assay: Reaction mixture for 50 assays (on ice) is comprised of 0.1-0.2 μL of […] ^125I-labeled Aβ(1-40)+1 μL of soluble Aβ(1-40)+13.5 μL assay buffer per assay. The following are the amounts of the components of the reaction mixture sufficient for 50 assay wells.
1) Prepare reaction mixture above by mixing components and storing on ice.
2) Pipet 14.5 μL of reaction mixture into each of 50 wells on a polypropylene U-bottom 96-well microtiter plate on ice (Costar 3794).
(§2) 3) Add 1.7 μL of diluted compound to be tested to each well in a column of eight, including solvent control. Serial 3-fold dilutions from 1 mM (100 μM final) in assay buffer−urea=7 dilutions+zero. Each 96-well plate can therefore accommodate 11 samples+1 Congo Red control (0.039-5 μM final in 2-fold steps).
4) Seal the plate with aluminum film (Beckman 538619) and incubate for 10 minutes on ice.
5) Raise the temperature to 37° C. and incubate for 3 to 5 hours (depending on the lot of the peptide).
6) Remove the aluminum film and add 200 μL/well of ice cold assay buffer with urea, collecting the radiolabeled fibrils by vacuum filtration through 0.2 μm pore size GVWP filters in 96-well plates (Millipore MAGV N22, Bedford, Mass.). Determine the radioactivity of the filters using standard methods well-known to those skilled in the art.

Aβ(1-42) = target: T3, Aβ(1-42) (Homo sapiens, UniProt P05067); test: BATYM Assay (Aβ(1-42) aggregation, Thioflavin T fluorescence); format: biochemical; settings: Aβ 1-42 final concentration 100 μM, PBS pH 7.4, 37° C., 1 day, ThT fluorescence
T3 construct: Required Aβ(1-42)(California Peptide) was dried from its hexafluoroisopropanol (HFIP) stock solution; purchased California Peptide
Procedure: Required Aβ(1-42)(California Peptide) was dried from its hexafluoroisopropanol (HFIP) stock solution. The Aβ(1-42) was dissolved in dimethylsulfoxide (DMSO) and then mixed with phosphate buffered saline, (PBS) (pH 7.4). The mixed Aβ(1-42) solution was filtered with a 0.2 μm Omnipore membrane syringe filter (Millipore, Bedford, Mass.). The compound to be tested in DMSO (50 times concentrate) was put into each well (0.5 μL/well) of a 96-well plate. The Aβ(1-42) solution was added into each well (24.5 μL/well). The plate was centrifuged at 1,000 g for 5 minutes and incubated at 37° C. for 1 day (Aβ 1-42; final concentration 100 μM).
After incubation Thioflavin T (ThT) (30 μM) solution in glycine-NaOH buffer (pH 8.5, 50 mM) was added into each well (250 μL/well), fluorescence was measured (ex. 440/20 nm; em 485/20 nm) using a fluorescence plate reader. The inhibitory activity was calculated as the reduction of fluorescence with the following formula:
inhibition (%)={(F(Aβ)−F(Aβ+compound)}/{F(Aβ)−F(solvent+compound)}×100
The IC50s were calculated by a curve fitting program using the following equation. The data were obtained from two different experiments in triplicate.
x=concentration of tested compound (M),

Aβ(1-40) [3] = target: T2, Aβ(1-40); test: BASST (Beta-Amyloid Self-Seeding, ThioflavinT), inhibitors of self-seeded amyloid fibril growth; format: biochemical; settings: 30 μM soluble Aβ(1-40), pH 7.5, 37° C., 3 to 5 hours, thioflavin T fluorescence
Procedure: BASST (Beta-Amyloid Self-Seeding, ThioflavinT)
as §1
Assay Buffer—50 mM sodium phosphate, pH 7.5, 100 mM NaCl, 0.02% NaN3, 1 M urea (filter and store at 4° C.).
Soluble Aβ(1-40)—2.2 mg/mL in deionized H2O (store in aliquots at −20° C., keep on ice when thawed) will self-seed after 1 week storage. Typically, the solution should be stored until no lag phase is seen in the assay.
Final assay conditions: 30 μM soluble Aβ(1-40) in deionized water in assay buffer. Compound to be tested is dissolved in DMSO, typically 5-50 mM stock, such that the final concentration of DMSO is <1% v/v in the assay.
Assay: Reaction mixture for 50 assays (on ice) comprised of 1 μL of soluble Aβ(1-40)+13.5 μL assay buffer per assay. The following are the amounts of the components of the reaction mixture that result in each of the 50 assay wells.
1) Prepare the reaction mix above by mixing the components and storing on ice.
2) Pipet […] of reaction mixture into each of 50 wells of a polystyrene U-bottom 96-well microtiter plate (Corning 25881-96) on ice.
as §2, with “[…]” for “μL”
4) Seal the plate with aluminum film and incubate for 10 minutes on ice.
5) Raise the temperature to 37° C. and incubate for 3 to 5 hours (depends on the lot of the peptide).
6) Remove the aluminum film and add 250 μL/well of 5 μM thioflavin T (ThT) [T-3516, Sigma-Aldrich] in 50 mM glycine-NaOH, pH 8.5. Read fluorescence on a plate reader (ex=440 nm/20 nm; em=485 nm/20 nm) within 5 minutes.

T2 sequence (P05067 672-711 limits assumed): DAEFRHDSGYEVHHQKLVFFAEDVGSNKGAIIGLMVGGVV
T1 sequence (P05067 672-711 limits assumed): as above
T3 sequence (P05067 672-713 limits assumed): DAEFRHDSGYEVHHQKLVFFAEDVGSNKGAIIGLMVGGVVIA

| Compound | melting point | IC50 [1] | IC50 (Aβ(1-40) [2]) | IC50 (Aβ(1-42)) | IC50 (Aβ(1-40) [3]) |
| --- | --- | --- | --- | --- | --- |
| CCCCCN(CCCCC)c1ccc(/C=C2\SC(=S)N(CC(=O)NS(=O)(=O)c3ccc(F)cc3)C2=O)cc1 [Example 27, (Z) N-{2-[5-(4-Dipentylamino-benzylidene)-4-oxo-2-thioxo-thiazolidin-3-yl]-acetyl}-4-fluoro-benzenesulfonamide] | 130 to 132 °C | 93 µM | 7 µM | 2.02 µM | 2 µM |
| O=C1/C(=C/c2ccc(N3CC[C@@H]4CCCC[C@H]4C3)cc2)SC(=S)N1Cc1nnn[nH]1 [Example 23, (Z) 5-[(4aS,8aR)-4-(Octahydro-isoquinolin-2-yl)-benzylidene]-3-(1H-tetrazol-5-ylmethyl)-2-thioxo-thiazolidin-4-one] | 247 °C | 30 µM | > 100 µM | 3.33 µM | 1 µM and 0.5 µM |
| CCCC1CCN(c2ccc(/C=C3\SC(=S)N(CC(=O)NS(=O)(=O)c4ccccc4)C3=O)cc2)CC1 [Example 36, (Z) N-(2-{4-Oxo-5-[4-(4-propyl-piperidin-1-yl)-benzylidene]-2-thioxo-thiazolidin-3-yl}-acetyl)benzenesulfonamide] | 201 °C | > 60 µM | > 100 µM | 3.3 µM | 1 µM |
| CCCC1CCN(c2ccc(/C=C3\SC(=S)N(Cc4cc(=O)c(O)co4)C3=O)cc2)CC1 [Example 34, (Z) 3-(5-Hydroxy-4-oxo-4H-pyran-2-ylmethyl)-5-[4-(4-propyl-piperidin-1-yl)-benzylidene]-2-thioxo-thiazolidin-4-one] | 253 °C | > 60 µM | > 100 µM | 2.38 µM | 2 µM |
| CCCCCN(CCCCC)c1ccc(/C=C2\SC(=S)N(CCS(=O)(=O)NC(=O)c3ccc(F)cc3)C2=O)cc1 [Example 31, (Z) 2-[5-(4-Dipentylamino-benzylidene)-4-oxo-2-thioxo-thiazolidin-3-yl]-ethanesulfonic acid 4-fluoro-benzoylamide] | 195 to 196 °C | > 100 µM | 9 µM | 3.11 µM | 0.3 µM |
| CCCCCN(CCCCC)c1ccc(/C=C2\SC(=S)N(CC(=O)NS(=O)(=O)c3ccccc3)C2=O)cc1 [Example 22, (Z) N-{2-[5-(4-Dipentylamino-benzylidene)-4-oxo-2-thioxo-thiazolidin-3-yl]-acetyl}-benzenesulfonamide] | 121 to 123 °C | > 60 µM | 3 µM | 1.99 µM | 1 µM |

Results, then the compound that gave them:

| melting point | IC50 [1] | IC50 (Aβ(1-40) [2]) | IC50 (Aβ(1-42)) | IC50 (Aβ(1-40) [3]) | Compound |
| --- | --- | --- | --- | --- | --- |
| 227 to 230 °C | > 10 µM | 9 µM | 1.83 µM | 0.8 µM | CCCCCCN(C)c1ccc(/C=C2\SC(=S)N(CC(=O)NS(C)(=O)=O)C2=O)cc1 [Example 5, (Z) N-({5-[4-(Hexyl-methyl-amino)-benzylidene]4-oxo-2-thioxo-thiazolidin-3-yl}-acetyl)methanesulfonamide] |
| 136 to 139 °C | 28 µM | > 100 µM | 3.5 µM | 10 µM | CCCCCCN(C)c1ccc(/C=C2\SC(=S)N(CCNC(=O)C(F)(F)F)C2=O)cc1 [Example 13, (Z) 2,2,2-Trifluoro-N-(2-{5-[4(hexyl-methyl-amino)benzylidene]-4-oxo-2-thioxo-thiazolidin-3-yl}-ethyl)-acetamide] |
| 147 to 149 °C | 7 µM | > 100 µM | 2.32 µM | 0.8 µM | CCCCCCN(C)c1ccc(/C=C2\SC(=S)N(CCS(=O)(=O)NC)C2=O)cc1 [Example 2, (Z) 2-{5-[4-(Hexyl-methyl-amino)-benzylidene]-4-oxo-2-thioxo-thiazolidin-3-yl}-ethanesulfonic acid methylamide] |
| 173 to 177 °C | 4 µM | > 100 µM | 2.15 µM | 1.75 µM | CCCCCCN(C)c1ccc(/C=C2\SC(=S)N(CC(=O)NS(=O)(=O)c3ccccc3)C2=O)cc1 [Example 9, (Z) N-({5-[4-(Hexyl-methyl-amino)benzylidene]-4-oxo-2-thioxo-thiazolidin-3-yl}-acetyl)benzenesulfonamide] |
